Tests used:
[1] = tested on: GST-RANKL-administered 7-week-old female C57BL/6 mice; experiment: Comparison of a plurality of bisphosphonates in GST-RANKL mice; type: in vivo, mouse; conditions: for dose at which the effects were exhibited: s.c. from the day before GST-RANKL
Protocol: GST-RANKL was intraperitoneally administered 3 times at 1 mg/kg every 24 hours. The femur, tibia, and serum were collected from each mouse 1.5 hours after the 3rd GST-RANKL administration. Measurement of TRAP-5b, calcium (Ca), and alkaline phosphatase (ALP) in the serum was carried out. Each femur was subjected to bone density measurement with pQCT and image analysis with micro CT.

[2] = tested on: GST-RANKL-administered, ovariectomized 7-week-old female C57BL/6N mice; experiment: Drug evaluation with a selective estrogen receptor modulator (raloxifene) in GST-RANKL/OVX mice; type: in vivo, mouse
Text: In addition, PBS (i.p.) and ultrapure water (p.o.) were used as control substances for comparison with GST-RANKL and raloxifene, respectively, upon administration.
The serum collected from each mouse was subjected to measurement of serum bone resorption markers (Ca and TRAP-5b) and an osteogenesis marker (ALP). Each femur was subjected to measurement of the bone density, the bone mineral content, and the cortical bone thickness with pQCT at points 0.6, 0.8, 1.0 mm from the distal growth plate on the proximal side. In addition, image analysis was carried out with micro CT.

[3] = raloxifene 1 or 10 mg/kg p.o. 14 days

## NCCCC(O)(P(=O)(O)O)P(=O)(O)O [alendronate]
[1]; 300 μg/kg s.c., p<0.05
  serum Ca concentration vs RANKL administration: significantly decreased
[1]; 300 μg/kg, p<0.01
  increase in the TRAP-5b concentration: significantly suppressed
[1]
  dose at which the effects were exhibited: 0.3 mg/kg

## CC(O)(P(=O)(O)O)P(=O)(O)O [etidronate]
[1]
  dose at which the effects were exhibited: 30 mg/kg

## O=C(c1ccc(OCCN2CCCCC2)cc1)c1c(-c2ccc(O)cc2)sc2cc(O)ccc12 [raloxifene]
[2]; among the all groups
  cancellous bone density (pQCT): no significant differences
[2]; raloxifene 1 mg/kg, 0.8 mm
  cortical bone mineral content increase in GST-RANKL+OVX group: 93%
  cortical bone thickness increase in GST-RANKL+OVX group: 101%
[2]; raloxifene 1 mg/kg, 1.0 mm
  cortical bone mineral content increase in GST-RANKL+OVX group: 136%
  cortical bone thickness increase in GST-RANKL+OVX group: 137%
  total bone density increase in GST-RANKL+OVX group: 10%
[2]; raloxifene 1 mg/kg, p<0.05
  serum ALP concentration: significantly decreased
[2]; raloxifene 10 mg/kg, 0.6 mm
  cortical bone mineral content increase in GST-RANKL+OVX group: 87%
  cortical bone thickness increase in GST-RANKL+OVX group: 92%
  total bone density increase in GST-RANKL+OVX group: 10%
[2]; raloxifene 10 mg/kg, 0.8 mm
  cortical bone mineral content increase in GST-RANKL+OVX group: 118%
  cortical bone thickness increase in GST-RANKL+OVX group: 123%
  total bone density increase in GST-RANKL+OVX group: 11%
[2]; raloxifene 10 mg/kg, 1.0 mm
  cortical bone mineral content increase in GST-RANKL+OVX group: 137%
  cortical bone thickness increase in GST-RANKL+OVX group: 133%
  total bone density increase in GST-RANKL+OVX group: 11%
[2]; raloxifene 10 mg/kg, p<0.01
  serum ALP concentration: significantly decreased
[2]; [3]
  serum Ca concentration: no significant changes
  serum TRAP-5b concentration: no significant changes
